Measurements published in ChEMBL document CHEMBL1681651, “A broad spectrum anticancer nucleoside with selective toxicity against human colon cells in vitro” (2011).

Columns and labels:
Format in all cases: functional
SR = experiment: Growth inhibition of human SR cells assessed as cell growth at 10 uM after 48 hrs by SRB assay; conditions: read-out: Activity
T47D [1] = experiment: Growth inhibition of human T47D cells assessed as cell growth at 10 uM after 48 hrs by SRB assay; conditions: read-out: Activity
NCI-H322M = experiment: Growth inhibition of human NCI-H322M cells assessed as cell growth at 10 uM after 48 hrs by SRB assay; conditions: read-out: Activity
SW-620 = experiment: Growth inhibition of human SW620 cells assessed as cell growth at 10 uM after 48 hrs by SRB assay; conditions: SW-620, 48 h, read-out: Activity
COLO 205 = experiment: Growth inhibition of human COLO205 cells after 48 hrs by […] growth inhibition assay; conditions: COLO 205, 48 h
UACC-62 = experiment: Growth inhibition of human UACC62 cells assessed as cell growth at 0.1 uM after 48 hrs by SRB assay; conditions: UACC-62, 48 h, read-out: Activity
MDA-MB-231 [2] = experiment: Growth inhibition of human MDA-MB-231 cells assessed as cell growth at 100 uM after 48 hrs by SRB assay; conditions: MDA-MB-231, 48 h, read-out: Activity
LOX IMVI [3] = experiment: Growth inhibition of human LOXIMVI cells assessed as cell growth at 1 uM after 48 hrs by SRB assay; conditions: read-out: Activity
NCI/ADR-RES = experiment: Growth inhibition of human NCI/ADR-RES cells assessed as cell growth at 0.1 uM after 48 hrs by SRB assay; conditions: read-out: Activity
HCT-116 = experiment: Growth inhibition of human HCT116 cells assessed as cell growth at 0.1 uM after 48 hrs by SRB assay; conditions: HCT-116, 48 h, read-out: Activity
MDA-MB-231 [4] = experiment: Growth inhibition of human MDA-MB-231 cells after 48 hrs by […] growth inhibition assay; conditions: MDA-MB-231, 48 h
BT-549 = experiment: Growth inhibition of human BT549 cells assessed as cell growth at 0.1 uM after 48 hrs by SRB assay; conditions: BT-549, 48 h, read-out: Activity
786-0 = experiment: Growth inhibition of human 786-0 cells assessed as cell growth at 0.1 uM after 48 hrs by SRB assay; conditions: 786-0, 48 h, read-out: Activity
OVCAR-5 = experiment: Growth inhibition of human OVCAR5 cells after 48 hrs by […] growth inhibition assay; conditions: OVCAR-5, 48 h
LOX IMVI [5] = experiment: Growth inhibition of human LOXIMVI cells assessed as cell growth at 0.1 uM after 48 hrs by SRB assay; conditions: read-out: Activity
LOX IMVI [6] = experiment: Growth inhibition of human LOXIMVI cells assessed as cell growth at 100 uM after 48 hrs by SRB assay; conditions: read-out: Activity
A498 = experiment: Growth inhibition of human A498 cells assessed as cell growth at 1 mM after 48 hrs by SRB assay; conditions: A498, 48 h, read-out: Activity
OVCAR-3 = experiment: Growth inhibition of human OVCAR3 cells assessed as cell growth at 1 uM after 48 hrs by SRB assay; conditions: OVCAR-3, 48 h, read-out: Activity
SF-268 = experiment: Growth inhibition of human SF268 cells assessed as cell growth at 1 uM after 48 hrs by SRB assay; conditions: SF-268, 48 h, read-out: Activity
SF-295 = experiment: Growth inhibition of human SF295 cells assessed as cell growth at 0.1 uM after 48 hrs by SRB assay; conditions: SF-295, 48 h, read-out: Activity
LOX IMVI [7] = experiment: Growth inhibition of human LOXIMVI cells after 48 hrs by […] growth inhibition assay
HOP-62 [8] = experiment: Growth inhibition of human HOP62 cells after 48 hrs by […] growth inhibition assay; conditions: HOP-62, 48 h
NCI-H460 [9] = experiment: Growth inhibition of human NCI-H460 cells assessed as cell growth at 1 mM after 48 hrs by SRB assay; conditions: NCI-H460, 48 h, read-out: Activity
SNB-19 = experiment: Growth inhibition of human SNB19 cells assessed as cell growth at 100 uM after 48 hrs by SRB assay; conditions: SNB-19, 48 h, read-out: Activity
T47D [10] = experiment: Growth inhibition of human T47D cells assessed as cell growth at 1 mM after 48 hrs by SRB assay; conditions: read-out: Activity
NCI-H460 [11] = experiment: Growth inhibition of human NCI-H460 cells assessed as cell growth at 0.1 uM after 48 hrs by SRB assay; conditions: NCI-H460, 48 h, read-out: Activity
NCI-H23 = experiment: Growth inhibition of human NCI-H23 cells assessed as cell growth at 0.1 uM after 48 hrs by SRB assay; conditions: NCI-H23, 48 h, read-out: Activity
HT-29 = experiment: Growth inhibition of human HT-29 cells assessed as cell growth at 0.1 uM after 48 hrs by SRB assay; conditions: HT-29, 48 h, read-out: Activity
HOP-62 [12] = experiment: Growth inhibition of human HOP62 cells assessed as cell growth at 1 mM after 48 hrs by SRB assay; conditions: HOP-62, 48 h, read-out: Activity
SF-539 = experiment: Growth inhibition of human SF539 cells assessed as cell growth at 1 uM after 48 hrs by SRB assay; conditions: SF-539, 48 h, read-out: Activity
UACC-257 = experiment: Growth inhibition of human UACC257 cells assessed as cell growth at 1 mM after 48 hrs by SRB assay; conditions: UACC-257, 48 h, read-out: Activity
EKVX = experiment: Growth inhibition of human EKVX cells assessed as cell growth at 100 uM after 48 hrs by SRB assay; conditions: read-out: Activity
MDA-MB-435 = experiment: Growth inhibition of human MDA-MB-435 cells assessed as cell growth at 1 mM after 48 hrs by SRB assay; conditions: MDA-MB-435, 48 h, read-out: Activity
U-251 = experiment: Growth inhibition of human U251 cells assessed as cell growth at 0.1 uM after 48 hrs by SRB assay; conditions: U-251, 48 h, read-out: Activity
[13] = read-out: LC50 (the source's name)
[14] = read-out: pLC50 (the source's name) (converted)

SMILES: CNC(=O)OC[C@H]1O[C@@H](n2cnc3c(NC(=O)Nc4ccccc4)ncnc32)[C@H](O[Si](C)(C)C(C)(C)C)[C@@H]1O[Si](C)(C)C(C)(C)C
- growth at 10 µM (SR): 77.9%
- growth at 10 µM (T47D [1]): 116%
- growth at 10 µM (NCI-H322M): 118%
- growth at 10 µM (SW-620): 98%

SMILES: CCOC(=O)C[C@H]1[C@@H](O[Si](C)(C)C(C)(C)C)[C@H](n2cnc3c(NC(=O)Nc4ccccc4)ncnc32)O[C@@H]1CNC(=O)NC
- GI50 (COLO 205; read-out: GI50): 3.84 µM
- CC50 (COLO 205; [13]): > 100 µM
- TGI (COLO 205; read-out: TGI): > 100 µM
- GI50 (COLO 205; read-out: pGI50 (converted)): 3.8 µM
- CC50 (COLO 205; [14]): > 100 µM
- TGI (COLO 205; read-out: pTGI (converted)): > 100 µM
- growth at 0.1 µM (UACC-62): 100%
- growth at 100 µM (MDA-MB-231 [2]): 20%
- growth at 1 µM (LOX IMVI [3]): 97%
- growth at 0.1 µM (NCI/ADR-RES): 105%
- growth at 10 µM (SR): 85%
- growth at 0.1 µM (HCT-116): 93%
- GI50 (MDA-MB-231 [4]; read-out: GI50): 3.96 µM
- CC50 (MDA-MB-231 [4]; [13]): > 100 µM
- TGI (MDA-MB-231 [4]; read-out: TGI): 41.3 µM
- GI50 (MDA-MB-231 [4]; read-out: pGI50 (converted)): 3.98 µM
- CC50 (MDA-MB-231 [4]; [14]): > 100 µM
- TGI (MDA-MB-231 [4]; read-out: pTGI (converted)): 41.7 µM
- growth at 0.1 µM (BT-549): 104%
- growth at 0.1 µM (786-0): 92%
- GI50 (OVCAR-5; read-out: GI50): 31.1 µM
- CC50 (OVCAR-5; [13]): > 100 µM
- TGI (OVCAR-5; read-out: TGI): > 100 µM
- GI50 (OVCAR-5; read-out: pGI50 (converted)): 30.9 µM
- CC50 (OVCAR-5; [14]): > 100 µM
- TGI (OVCAR-5; read-out: pTGI (converted)): > 100 µM
- growth at 0.1 µM (LOX IMVI [5]): 97%
- growth at 100 µM (LOX IMVI [6]): 35%
- growth at 1000 µM (A498): -41%
- growth at 1 µM (OVCAR-3): 115%
- growth at 1 µM (SF-268): 103%
- growth at 0.1 µM (SF-295): 91%
- GI50 (LOX IMVI [7]; read-out: GI50): 5.46 µM
- CC50 (LOX IMVI [7]; [13]): > 100 µM
- TGI (LOX IMVI [7]; read-out: TGI): > 100 µM
- GI50 (LOX IMVI [7]; read-out: pGI50 (converted)): 5.5 µM
- CC50 (LOX IMVI [7]; [14]): > 100 µM
- TGI (LOX IMVI [7]; read-out: pTGI (converted)): > 100 µM
- GI50 (HOP-62 [8]; read-out: GI50): 8.96 µM
- CC50 (HOP-62 [8]; [13]): 73.1 µM
- TGI (HOP-62 [8]; read-out: TGI): 26.4 µM
- GI50 (HOP-62 [8]; read-out: pGI50 (converted)): 8.91 µM
- CC50 (HOP-62 [8]; [14]): 72.4 µM
- TGI (HOP-62 [8]; read-out: pTGI (converted)): 26.3 µM
- growth at 1000 µM (NCI-H460 [9]): -49%
- growth at 10 µM (T47D [1]): 73%
- growth at 100 µM (SNB-19): 82%
- growth at 1000 µM (T47D [10]): 13%
- growth at 0.1 µM (NCI-H460 [11]): 102%
- growth at 0.1 µM (NCI-H23): 101%
- growth at 10 µM (NCI-H322M): 95%
- growth at 0.1 µM (HT-29): 104%
- growth at 1000 µM (HOP-62 [12]): -65%
- growth at 1 µM (SF-539): 91%
- growth at 1000 µM (UACC-257): 9%
- growth at 100 µM (EKVX): 53%
- growth at 10 µM (SW-620): 97%
- growth at 1000 µM (MDA-MB-435): 8%
- growth at 0.1 µM (U-251): 98%
